Laboratory results published in ChEMBL document CHEMBL1201862, “PubChem BioAssay data set” (2004).
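Exposure lasted 48 hours, with cells grown in 96-well plates and compounds tested at five concentrations. At the GI50, growth is halved.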 Activity calls are given as the source filed them. Rule as the data show it: active = GI50 up to about 1.1 µM and inactive = higher.

Key:
Test in all cases: NCI tumour cell line growth inhibition, 48 h
[1] = system: A498
[2] = system: BT-549
[3] = system: CCRF-CEM
[4] = system: HCT-116
[5] = system: HOP-62
[6] = system: Hs-578T
[7] = system: K562
[8] = system: M14
[9] = system: MDA-MB-435
[10] = system: NCI-H23
[11] = system: NCI-H460
[12] = system: NCI-H522
[13] = system: OVCAR-8
[14] = system: PC-3
[15] = system: SK-MEL-2
[16] = system: SK-MEL-5
[17] = system: SN12C
[18] = system: SNB-75
[19] = system: SW-620
[20] = system: UO-31

SMILES | GI50 [1] | GI50 [2] | GI50 [3] | GI50 [4] | GI50 [5] | GI50 [6] | GI50 [7] | GI50 [8] | GI50 [9] | GI50 [10] | GI50 [11] | GI50 [12] | GI50 [13] | GI50 [14] | GI50 [15] | GI50 [16] | GI50 [17] | GI50 [18] | GI50 [19] | GI50 [20]
CC(=O)O[C@H]1C(=O)[C@@]2(C)C(C(OC(=O)c3ccccc3)[C@]3(O)CC(OC(=O)C(O)C(NC(=O)c4ccccc4)c4ccc(F)cc4)C(C)=C1C3(C)C)[C@]1(OC(C)=O)CO[C@@H]1C[C@@H]2O (stereo not given in full) | < 0.001 µM (active) | 0.00152 µM (active) | 0.0014 µM (active) | < 0.001 µM (active) | 0.00233 µM (active) | < 0.001 µM (active) | < 0.001 µM (active) | 0.00164 µM (active) | < 0.001 µM (active) | 0.0011 µM (active) | < 0.001 µM (active) | < 0.001 µM (active) | 0.00164 µM (active) | < 0.001 µM (active) | 0.00133 µM (active) | 0.00375 µM (active) | 0.00158 µM (active) | 0.00168 µM (active) | < 0.001 µM (active) | 0.166 µM (active)
CO[C@H](C)[C@](O)(C(=O)OCC1=CCN2CC[C@@H](O)[C@H]12)C(C)C | > 100 µM (inactive) | > 100 µM (inactive) | > 100 µM (inactive) | > 100 µM (inactive) | > 100 µM (inactive) | > 100 µM (inactive) | > 100 µM (inactive) | > 100 µM (inactive) | > 100 µM (inactive) | > 100 µM (inactive) | 28.5 µM (inactive) | > 100 µM (inactive) | > 100 µM (inactive) | > 100 µM (inactive) | > 100 µM (inactive) | > 100 µM (inactive) | > 100 µM (inactive) | > 100 µM (inactive) | > 100 µM (inactive) | > 100 µM (inactive)
Cc1cccc(/C=N/NC(=S)NCc2ccccn2)n1 | 49.2 µM (inactive) | 58.2 µM (inactive) | 24.2 µM (inactive) | 29.4 µM (inactive) | 22.2 µM (inactive) | > 93.5 µM (inactive) | 36.1 µM (inactive) | 18.6 µM (inactive) | 36.9 µM (inactive) | 40.8 µM (inactive) | 15.9 µM (inactive) | 34.3 µM (inactive) | 32.1 µM (inactive) | 18.5 µM (inactive) | > 100 µM (inactive) | 17.7 µM (inactive) | 30.6 µM (inactive) | 17.6 µM (inactive) | 22.1 µM (inactive) | 14.8 µM (inactive)
c1cc(-c2ccc(Oc3ccc(-c4ccncc4)cc3)cc2)ccn1 | 6.76 µM (inactive) | 5.07 µM (inactive) | 4.73 µM (inactive) | 4.24 µM (inactive) | 23.6 µM (inactive) | 12.8 µM (inactive) | 2.5 µM (inactive) | 4.76 µM (inactive) | 1.85 µM (inactive) | 3.18 µM (inactive) | 3.93 µM (inactive) | 6.12 µM (inactive) | 9.55 µM (inactive) | 27 µM (inactive) | 5.38 µM (inactive) | 2.2 µM (inactive) | 23.3 µM (inactive) | 15.9 µM (inactive) | 4.37 µM (inactive) | 7.21 µM (inactive)
O=c1ssc(Cl)c1Nc1c(Cl)ssc1=O | 17.8 µM (inactive) | 18.7 µM (inactive) | 3.78 µM (inactive) | 17.5 µM (inactive) | 20.7 µM (inactive) | 36.4 µM (inactive) | 6.44 µM (inactive) | 19.2 µM (inactive) | 18 µM (inactive) | 19.9 µM (inactive) | 18.8 µM (inactive) | 19.6 µM (inactive) | 21.5 µM (inactive) | 18.9 µM (inactive) | 19.4 µM (inactive) | 17 µM (inactive) | 19.5 µM (inactive) | 25.9 µM (inactive) | 15.8 µM (inactive) | 14.4 µM (inactive)
